{"source": "paper PMC3651166", "about": "“Differential Cytotoxic Activity of a Novel Palladium-Based Compound on Prostate Cell Lines, Primary Prostate Epithelial Cells and Prostate Stem Cells” (PLoS ONE, 2013)", "key": {"[1]": {"system": "PNT1A, PNT2-C2, BPH-1, PC-3, LNCaP, P4E6", "assay": "MTS assay, panel of six prostate cell lines", "format": "cell-based, human", "settings": "100 µM, 72 h", "experimental": "(§1) In this study, six different prostate cell lines (PNT1A, PNT2-C2, BPH-1, PC-3, LNCaP, P4E6) were used (Table 1). These cell lines encompass the spectrum of cellular differentiation status (basal, intermediate and luminal phenotypes), as well as the spectrum of normal, early cancer and late cancer. BPH-1 is derived from benign prostate hyperplasia (BPH), while PNT2-C2 and PNT1A are derived from normal prostate. PC-3, LNCaP and P4E6 are cancer cell lines. LNCaP, PNT2-C2, PNT1A were grown in RPMI medium with 10% FCS (foetal calf serum); PC-3 was grown in Ham’s F-12 medium with 7% FCS; BPH-1 was grown in RPMI medium with 5% FCS; P4E6 was grown in KSFM (Keratinocyte serum free medium) with 2% FCS. No antibiotics were used in any media. The cells were incubated at 37°C in a humidified atmosphere containing 5% CO2.\nThis assay was performed for the initial screening of the effect of the Pd complex on the cell lines and the whole cell population of primary cultures. The CellTiter 96® Aqueous One Solution Cell Proliferation Assay kit (G3580, Promega, Madison, WI, USA) was used and the manufacturer’s instructions were followed. […] Following 2.5 h incubation at 37°C, the absorbance was read at 485 nm using a plate reader (PolarStar Optima, BMG Labtech, UK). Percent viability was calculated using the formula (% Viability = [(Sample Absorbance/Control Absorbance)]×100. […]"}, "BPH primary cells": {"system": "BPH primary cells", "assay": "MTS assay, primary cultures from benign prostate hyperplasia", "format": "cell-based, human", "from_the_text": "(§2) Primary prostate epithelial cells were isolated from human tissue samples. The samples were collected with ethical permission from York District Hospital (York, UK) and Castle Hill Hospital (Cottingham, UK). Benign prostatic hyperplasia (BPH) and prostate cancer samples were obtained from TURP (transurethral resection of the prostate), radical prostatectomy (laparoscopic and open) and cystectomy operations. All patients gave written consent for their tissue to be used for research and all patient samples were anonymised. Permission was approved by the Local Research Ethical Committees, associated with York District Hospital and Castle Hill Hospital. Permission was administered by the Yorkshire and Humber Research Ethics Committee.\nProstate epithelial cells were cultured as previously described in stem cell media (SCM) consisting of keratinocyte serum-free media (KSFM) with bovine pituitary extract (BPE) and epidermal growth factor (EGF), glutamine, stem cell factor (SCF), granulocyte macrophage colony stimulating factor (GM-CSF), leukaemia inhibitory factor (LIF) and cholera toxin. Cells were grown with STO feeder cells (irradiated at 60 Gy) on collagen I-coated plates.\n(§3) This assay was performed for the initial screening of the effect of the Pd complex on the cell lines and the whole cell population of primary cultures. The CellTiter 96® Aqueous One Solution Cell Proliferation Assay kit (G3580, Promega, Madison, WI, USA) was used and the manufacturer’s instructions were followed. Briefly, after treating cells that were seeded at a density of 5,000 cells per well in a 96-well plate in triplicate for a desired period (24 h, 48 h, 72 h), 20 µL of reagent was added to each well. Following 2.5 h incubation at 37°C, the absorbance was read at 485 nm using a plate reader (PolarStar Optima, BMG Labtech, UK). Percent viability was calculated using the formula (% Viability = [(Sample Absorbance/Control Absorbance)]×100.\nMTS and ATP assays were performed in triplicate and data presented as the mean +/− standard deviation. IC50 values (Table 3 and Table 4) were calculated from graphs of transformed data following application of the nonlinear regression (curve fit) that represents the log(inhibitor) ‘v’ normalized response (GraphPad Prism software) (Supplementary Figures S1 and S2). For significance calculations, the Wilcoxon rank sum test was used (Sigmaplot). Flow cytometry analysis was carried out in triplicate and results are presented as an average with error bars indicating the standard error."}, "P4E6, PC-3, LNCaP": {"system": "P4E6, PC-3, LNCaP", "assay": "MTS assay, average over cancer cell lines", "format": "cell-based, human", "settings": "average of P4E6, PC-3, LNCaP", "experimental": "as §1, §3\nMTS and ATP assays were performed in triplicate and data presented as the mean +/− standard deviation. IC50 values (Table 3 and Table 4) were calculated from graphs of transformed data following application of the nonlinear regression (curve fit) that represents the log(inhibitor) ‘v’ normalized response (GraphPad Prism software) (Supplementary Figures S1 and S2). For significance calculations, the Wilcoxon rank sum test was used (Sigmaplot). […]"}, "cleaved caspase-3": {"system": "cleaved caspase-3", "assay": "Western blotting for apoptosis, cell lines", "format": "cell-based, human", "experimental": "Following drug treatment, cell lysates were harvested using Cytobuster Protein Extraction Reagent (71009, EMD Millipore, Darmstadt, Germany) with protease inhibitors (cOmplete, EDTA-free Protease Inhibitor Cocktail Tablets, Roche Applied Science, UK). 20 µg of protein extract were loaded on 12% SDS-PAGE gels and wet-transferred to a PVDF membrane. Antibodies used include: monoclonal anti-β-actin 1∶5000 (A5316, Sigma-Aldrich), anti-LC3B 1∶3000 (Ab51520, abcam), cleaved caspase-3 (Asp175) 1∶1000 (9661S, Cell Signaling Technology) and secondary antibodies were Rabbit anti-mouse-HRP 1∶10000 (P0260, Dako) and anti-rabbit IgG HRP-linked 1∶5000 (Cell Signaling Technology Inc. 7074S). Kaleidoscope protein marker was run on each gel (161-0324, Bio-Rad)."}, "[2]": {"system": "stem cells (SCs), transit-amplifying cells (TAs) and committed basal cells (CBs)", "assay": "ATP viability assay on fractionated primary cells", "format": "cell-based", "experimental": "Epithelial cells from human tumour or BPH materials were cultured for several weeks and the cells treated at very low passages. The cultured basal cell population were trypsinized, resuspended in SCM and then plated on BSA-blocked collagen I-coated plates. […] The cells that attached to substratum were trypsinised, resuspended in MACs buffer and incubated with CD133-microbeads (Cat no. 130-050-801, Miltenyi Biotec Inc., Auburn, CA, USA). MACs MS columns (Cat no. 130-042-201, Miltenyi Biotec Inc., Auburn, CA, USA) were used to select the CD133^+ and CD133^− cells. Finally, the three cell populations were obtained: stem cells (SCs) - α2β1integrin^hi/CD133^+, transit-amplifying cells (TAs) - α2β1integrin^hi/CD133^− and committed basal cells (CBs) - α2β1integrin^lo.\nThis assay was employed for the bioluminescent determination of the adenosine 5′-triphosphate (ATP) released from fractionated living cells (cancer stem cells, transit amplifying cells and committed basal cells). As ATP is rapidly degraded in dead cells, high intracellular levels provide a selective assay for living cells. The ATP-bioluminescent somatic cell assay kit (FLASC, Sigma-Aldrich, Saint Louis, MO, USA) was used with protocol modifications. Briefly, 50–500 cells per well were seeded in a collagen-coated 96 well plate in triplicate. After treating cells for 72 h, 150 µL of medium was removed from each well. 50 µL of cell extraction reagent was added into each original well. Following 20 min incubation at RT, 50 µL of cell extract was transferred to a white 96-well plate. Finally, 50 µL of ATP assay mix solution was added into the wells and luminescence was read using a plate reader (PolarStar Optima, BMG Labtech, UK). Percent viability was calculated using the formula (% Viability = [(Sample RLU/Control RLU)]x100 where RLU refers to relative light units."}, "[3]": {"system": "primary cultures from BPH and Gleason 6/7 cancers", "assay": "MTS assay, primary cultures BPH and Gleason 6/7 together", "format": "cell-based, human", "from_the_text": "as §2, with “Committee. […]” for “Committee.”\nThis assay was performed for the initial screening of the effect of the Pd complex on the cell lines and the whole cell population of primary cultures. […] Following 2.5 h incubation at 37°C, the absorbance was read at 485 nm using a plate reader (PolarStar Optima, BMG Labtech, UK). Percent viability was calculated using the formula (% Viability = [(Sample Absorbance/Control Absorbance)]×100."}}, "note": "Entries after “also recorded” stand apart in the source; their conditions may differ. Where two headings read alike, the source gives them in different places."}
{"substance": "[PdCl(terpy)](sac)⋅2 H2O [Pd complex]", "values": [{"measurement": "growth inhibition of all cell lines", "setting": "[1]", "value": "almost completely"}, {"measurement": "IC50", "setting": "BPH primary cells; BPH primary cells, sample 1608, 72 h, read-out: IC50", "value": 5.97, "unit": "µM"}, {"measurement": "IC50", "setting": "BPH primary cells; BPH primary cells, sample 3108, 72 h, read-out: IC50", "value": 7.33, "unit": "µM"}, {"measurement": "IC50", "setting": "BPH primary cells; BPH primary cells, sample 7611, 72 h, read-out: IC50", "value": 6.97, "unit": "µM"}, {"measurement": "IC50", "setting": "BPH primary cells; BPH primary cells, sample 8109, 72 h, read-out: IC50", "value": 14.4, "unit": "µM"}, {"measurement": "IC50", "setting": "BPH primary cells; average of BPH primary cells, 72 h, read-out: IC50 AVERAGE", "value": 8.67, "unit": "µM"}, {"measurement": "reduction of cell viability compared to etoposide", "setting": "BPH primary cells; benign samples, both at 25 µM, 72 h, median values", "value": "at least 5.6 fold"}, {"measurement": "IC50", "setting": "P4E6, PC-3, LNCaP; 24 h", "value": 75.4, "unit": "µM"}, {"measurement": "IC50", "setting": "P4E6, PC-3, LNCaP; 48 h", "value": 23.6, "unit": "µM"}, {"measurement": "IC50", "setting": "P4E6, PC-3, LNCaP; 72 h", "value": 11.5, "unit": "µM"}, {"measurement": "cleaved caspase-3 (apoptosis)", "setting": "cleaved caspase-3; BPH-1, PNT2-C2 and P4E6 cells", "value": "clear induction of cleaved caspase-3"}, {"measurement": "cleaved caspase-3 (apoptosis)", "setting": "cleaved caspase-3; LNCaP cells", "value": "only observed after treatment with 25 µM Pd complex"}, {"measurement": "cleaved caspase-3 (apoptosis)", "setting": "cleaved caspase-3; PC3 cells", "value": "no evidence of cleaved caspase-3"}, {"measurement": "toxicity compared to cisplatin", "setting": "[2]; 6 µM range, ATP assay", "value": "comparable toxicity to cisplatin"}, {"measurement": "anti-growth effect compared to 25 µM Pd complex and 25 µM etoposide", "setting": "[2]; 6.25 µM, 72 h, ATP assay, SC, TA, CB", "value": "less than 25 µM Pd complex but still more cytotoxic than 25 µM etoposide"}, {"measurement": "cytotoxicity compared to 25 µM etoposide", "setting": "[2]; 25 µM, 72 h, ATP assay, stem cells (also TA, CB)", "value": "significantly more cytotoxic; also recorded: much more potent cytotoxic activity than etoposide"}, {"measurement": "cell killing", "setting": "[2]; 50 µM, data not shown", "value": "killed all cells"}, {"measurement": "concentrations having a significant anti-growth effect on all samples", "setting": "[3]; BPH and Gleason 6/7 samples, 72 h", "value": "higher than 6.25"}, {"measurement": "lowest concentration inducing a significant anti-growth effect", "setting": "[3]; primary cultures, previous experiments (MTS)", "value": 6.25, "unit": "µM"}]}
